This note sets out measurements from ChEMBL document CHEMBL1136195, “Inhibition of Src kinase activity by 4-anilino-5,10-dihydro-pyrimido[4,5-b]quinolines” (Bioorg Med Chem Lett, 2003).

The target in the first assay is T1, Proto-oncogene tyrosine-protein kinase Src (Homo sapiens, UniProt P12931). Nature of the assay: (§1) Inhibition of Src protein tyrosine kinase.
T1 sequence (P12931 2-536 limits assumed): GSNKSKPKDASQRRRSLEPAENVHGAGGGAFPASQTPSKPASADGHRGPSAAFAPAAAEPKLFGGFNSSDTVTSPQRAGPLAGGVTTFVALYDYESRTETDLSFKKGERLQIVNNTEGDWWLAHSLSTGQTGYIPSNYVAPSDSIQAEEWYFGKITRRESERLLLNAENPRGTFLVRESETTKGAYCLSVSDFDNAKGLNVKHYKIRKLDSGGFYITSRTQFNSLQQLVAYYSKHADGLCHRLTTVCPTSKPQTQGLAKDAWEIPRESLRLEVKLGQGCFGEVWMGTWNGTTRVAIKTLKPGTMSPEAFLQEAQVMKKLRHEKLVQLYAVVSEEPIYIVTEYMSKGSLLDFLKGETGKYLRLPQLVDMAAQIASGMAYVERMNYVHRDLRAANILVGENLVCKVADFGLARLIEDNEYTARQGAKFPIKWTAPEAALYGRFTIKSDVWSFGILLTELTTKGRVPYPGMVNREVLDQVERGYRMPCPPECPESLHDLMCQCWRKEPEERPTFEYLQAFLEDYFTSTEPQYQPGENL
Conditions: not given
`COc1cc(Nc2ncnc3nc4cc(OC)c(OC)cc4cc23)c(Cl)cc1Cl`: the IC50 is > 10000 nM.
Same read-out and setting: as for `COc1cc2ncc(C#N)c(Nc3ccc(Cl)cc3Cl)c2cc1OC`, the figure is 30 nM.
Still for that read-out and setting: as for `COc1cc(Nc2c(C#N)cnc3cc(OC)c(OC)cc23)c(Cl)cc1Cl`, the figure is 4.3 nM.
The same measure, in the same setting: the value for `COCCOc1cc2c(cc1OC)Nc1ncnc(Nc3cc(OC)c(Cl)cc3Cl)c1C2` was 9.8 nM; that for `COCCOc1cc2c(cc1OC)Cc1c(Nc3cc(OC)c(Cl)cc3Cl)ncnc1N2` was 2.3 nM.
`COc1cc(Nc2ncnc3c2Cc2cc(OC)c(OC)cc2N3)c(Cl)cc1Cl`: the IC50 is 3.3 nM.
Take `COCCOc1cc2c(cc1OC)Cc1c(Nc3ccc(Cl)cc3Cl)ncnc1N2`: the IC50 came out at 16 nM.

The target in a further assay is T1, Proto-oncogene tyrosine-protein kinase Src. The assay is described as §1. To be noted: concentration not given here.
`COCCOc1cc2nc3ncnc(Nc4cc(OC)c(Cl)cc4Cl)c3cc2cc1OC` yielded an inhibition of 35%.

Broadly, the IC50 is the point on the concentration scale where inhibition reaches its midpoint. A high value points to lower potency. A word on the inhibition: it is the percentage by which the read-out fell short of the control. A higher inhibition goes with a response far below the control.
